According to ChEMBL document CHEMBL1142226, “Impact of physicochemical and structural properties on the pharmacokinetics of a series of alpha1L-adrenoceptor antagonists” (Drug Metab Dispos, 2007):

How the values were obtained:
[1] = Metabolic stability in Sprague-Dawley rat bile assessed as drug remaining; type: ADME
[2] = Metabolic stability in Sprague-Dawley rat liver microsomes assessed as half life; type: ADME, Microsome
[3] = Metabolic stability in Sprague-Dawley rat assessed as hepatic extraction ratio; type: ADME, tissue-based; details: liver
Canis familiaris [4] = assay: Unbound volume of distribution in Beagle dog at 0.5 mg/kg, iv; type: ADME, organism-based, Canis lupus familiaris; parameters: dose 0.5 mg/kg, route intravenous; details: in vivo
Canis familiaris [5] = assay: Unbound plasma clearance in Beagle dog at 0.5 mg/kg, iv; type: ADME, organism-based, Canis lupus familiaris; parameters: dose 0.5 mg/kg, route intravenous; details: in vivo
[6] = Metabolic stability in human liver microsomes assessed as half life at 1 uM; type: ADME, Microsome
[7] = Volume of distribution in Beagle dog at 0.5 mg/kg, iv; type: ADME, organism-based, Canis lupus familiaris; parameters: dose 0.5 mg/kg, route intravenous; details: in vivo
[8] = Lipophilicity, log D in 0.1M potassium phosphate buffer at pH 7.4; type: physicochemical
[9] = Oral bioavailability in Beagle dog at 0.5 mg/kg; type: ADME, organism-based, Canis lupus familiaris; details: in vivo
[10] = Protein binding in Beagle dog plasma at 1 ug/ml; type: ADME, cell-free, Canis lupus familiaris; details: read-out: PPB (converted)
[11] = Plasma clearance in Beagle dog at 0.5 mg/kg, iv; type: ADME, organism-based, Canis lupus familiaris; parameters: dose 0.5 mg/kg, route intravenous
[12] = Dissociation constant, pKa of the compound; type: physicochemical
[13] = Elimination half life in Beagle dog at 0.5 mg/kg, iv; type: ADME, organism-based, Canis lupus familiaris; parameters: dose 0.5 mg/kg, route intravenous; details: in vivo
[14] = Fraction unbound in human liver microsomes at 1 uM; type: ADME, Microsome
[15] = Metabolic stability in Beagle dog liver microsomes assessed as half life at 1 uM; type: ADME, Canis lupus familiaris, Microsome
[16] = Fraction unbound in Beagle dog liver microsomes at 1 uM; type: ADME, Canis lupus familiaris, Microsome
Liver = assay: Unbound intrinsic clearance in Beagle dog liver microsomes at 1 uM; type: ADME, Canis lupus familiaris, Microsome
Liver microsomes = assay: Unbound intrinsic clearance in human liver microsomes at 1 uM; type: ADME, Microsome
[17] = Oral absorption in Beagle dog at 0.5 mg/kg, po; type: ADME, organism-based, Canis lupus familiaris; parameters: dose 0.5 mg/kg, route oral; details: in vivo, read-out: Fabs
[18] = Oral bioavailability in Beagle dog at 2 mg/kg; type: ADME, organism-based, Canis lupus familiaris; details: in vivo
[19] = Oral absorption in Beagle dog at 2 mg/kg, po; type: ADME, organism-based, Canis lupus familiaris; parameters: dose 2 mg/kg, route oral; details: in vivo, read-out: Fabs
[20] = Volume of distribution in Beagle dog at 0.3 mg/kg, iv; type: ADME, organism-based, Canis lupus familiaris; parameters: dose 0.3 mg/kg, route intravenous; details: in vivo
Rattus norvegicus = assay: Unbound volume of distribution in Sprague-Dawley rat at 0.5 mg/kg, iv; type: ADME, organism-based; parameters: dose 0.5 mg/kg, route intravenous; details: in vivo
[21] = Tmax in human at 0.02 mg/kg, po; type: ADME, organism-based; parameters: dose 0.02 mg/kg, route oral; details: in vivo
[22] = Elimination half life in Beagle dog at 0.3 mg/kg, iv; type: ADME, organism-based, Canis lupus familiaris; parameters: dose 0.3 mg/kg, route intravenous; details: in vivo
[23] = Plasma clearance in Beagle dog at 0.3 mg/kg, iv; type: ADME, organism-based, Canis lupus familiaris; parameters: dose 0.3 mg/kg, route intravenous
[24] = Protein binding in Sprague-Dawley rat plasma at 1 ug/ml; type: ADME, cell-free; details: read-out: PPB (converted)
[25] = Elimination half life in Sprague-Dawley rat at 1 mg/kg, po; type: ADME, organism-based; parameters: dose 1 mg/kg, route oral; details: in vivo
[26] = Oral bioavailability in human at 0.25 to 1.5 mg/kg; type: ADME, organism-based; details: in vivo
[27] = Cmax in Sprague-Dawley rat at 1 mg/kg, po; type: ADME, organism-based; parameters: dose 1 mg/kg, route oral; details: in vivo
Canis familiaris [28] = assay: Unbound volume of distribution in Beagle dog at 0.3 mg/kg, iv; type: ADME, organism-based, Canis lupus familiaris; parameters: dose 0.3 mg/kg, route intravenous; details: in vivo
[29] = Cmax in human at 0.02 mg/kg, po; type: ADME, organism-based; parameters: dose 0.02 mg/kg, route oral; details: in vivo
[30] = Oral bioavailability in Sprague-Dawley rat at 1 mg/kg; type: ADME, organism-based; details: in vivo
[31] = Tmax in Sprague-Dawley rat at 1 mg/kg, po; type: ADME, organism-based; parameters: dose 1 mg/kg, route oral; details: in vivo
[32] = Elimination half life in Sprague-Dawley rat at 0.5 mg/kg, iv; type: ADME, organism-based; parameters: dose 0.5 mg/kg, route intravenous; details: in vivo
[33] = Oral absorption in Beagle dog at 0.6 mg/kg, po; type: ADME, organism-based, Canis lupus familiaris; parameters: dose 0.6 mg/kg, route oral; details: in vivo, read-out: Fabs
[34] = Plasma clearance in Sprague-Dawley rat at 0.5 mg/kg, iv; type: ADME, organism-based; parameters: dose 0.5 mg/kg, route intravenous
[35] = Oral bioavailability in Beagle dog at 0.6 mg/kg; type: ADME, organism-based, Canis lupus familiaris; details: in vivo
Homo sapiens = species: Homo sapiens; assay: Protein binding in human plasma at 1 ug/ml; details: read-out: PPB (converted)
[36] = Elimination half life in human at 0.02 mg/kg, po; type: ADME, organism-based; parameters: dose 0.02 mg/kg, route oral; details: in vivo
[37] = Volume of distribution in Sprague-Dawley rat at 0.5 mg/kg, iv; type: ADME, organism-based; parameters: dose 0.5 mg/kg, route intravenous; details: in vivo
[38] = Antagonist activity at alpha-1-adrenoceptor in rat aorta assessed as inhibition of noradrenaline-mediated contraction; type: functional, tissue-based
[39] = Antagonist activity at alpha-1L-adrenoceptor in human prostate assessed as inhibition of noradrenaline-mediated contraction; type: functional, tissue-based, Prostate gland

**Q.** With `COc1cc2c(cc1OC)CN(c1cc(N3CCCN(C(=O)N4CC(O)C(O)C4)CC3)nc3cc(OC)c(OC)cc13)CC2` (centres undefined) as the compound, how does the Stability [1] read?
**A.** Its Stability is 90%.

**Q.** And the half-life [2]?
**A.** Its half-life is > 2 h.

**Q.** And the hepatic extraction ratio [3]?
**A.** Its hepatic extraction ratio is 0.8.

**Q.** With `COc1cc2nc(N3CCCN(C(=O)N4CCOCC4)CC3)cc(N)c2c(-c2ccccc2)c1OC` as the compound, how does the Vd (Canis familiaris [4]) read?
**A.** The Vd was 23 L/kg.

**Q.** What about the CL (Canis familiaris [5]) of the same compound?
**A.** The CL was 5.28 L/h/kg.

**Q.** What about the half-life at 1 µM [6] of the same compound?
**A.** The half-life at 1 µM was 0.15 h.

**Q.** And the Vd [7]?
**A.** The Vd was 2.8 L/kg.

**Q.** And the logD [8]?
**A.** Its logD is 1.8.

**Q.** What about the bioavailability [9] of the same compound?
**A.** The bioavailability was 24%.

**Q.** And the fraction unbound at 1 ug/ml [10]?
**A.** Its fraction unbound at 1 ug/ml is 0.12.

**Q.** And the clearance [11]?
**A.** The clearance was 0.528 L/h/kg.

**Q.** What about the pKa [12] of the same compound?
**A.** Its pKa is 8.5.

**Q.** What about the half-life [13] of the same compound?
**A.** The half-life was 3.6 h.

**Q.** What about the fraction unbound at 1 µM [14] of the same compound?
**A.** Its fraction unbound at 1 µM is 0.414.

**Q.** What about the half-life at 1 µM [15] of the same compound?
**A.** The half-life at 1 µM was 0.417 h.

**Q.** What about the fraction unbound at 1 µM [16] of the same compound?
**A.** Its fraction unbound at 1 µM is 0.59.

**Q.** What about the CL (Liver) of the same compound?
**A.** Its CL is 7.32 L/h/kg.

**Q.** And the CL (Liver microsomes)?
**A.** Its CL is 4.92 L/h/kg.

**Q.** And the Fa [17]?
**A.** The Fa was 29%.

**Q.** For `COc1cc2nc(N3CCCN(C(=O)N4CCOCC4)CC3)nc(N)c2c(-c2ccccn2)c1OC`, which Vd (Canis familiaris [4]) is on record?
**A.** Its Vd is 4 L/kg.

**Q.** And the CL (Canis familiaris [5])?
**A.** The CL was 3.6 L/h/kg.

**Q.** What about the half-life at 1 µM [6] of the same compound?
**A.** The half-life at 1 µM was 0.15 h.

**Q.** What about the Vd [7] of the same compound?
**A.** Its Vd is 2.2 L/kg.

**Q.** What about the logD [8] of the same compound?
**A.** The logD was 1.5.

**Q.** What about the bioavailability [18] of the same compound?
**A.** Its bioavailability is 63%.

**Q.** And the fraction unbound at 1 ug/ml [10]?
**A.** Its fraction unbound at 1 ug/ml is 0.56.

**Q.** And the clearance [11]?
**A.** Its clearance is 1.2 L/h/kg.

**Q.** And the pKa [12]?
**A.** The pKa was 6.9.

**Q.** And the half-life [13]?
**A.** Its half-life is 1.6 h.

**Q.** What about the Fa [19] of the same compound?
**A.** The Fa was 100%.

**Q.** And the fraction unbound at 1 µM [14]?
**A.** The fraction unbound at 1 µM was 1.

**Q.** What about the half-life at 1 µM [15] of the same compound?
**A.** The half-life at 1 µM was 0.767 h.

**Q.** And the fraction unbound at 1 µM [16]?
**A.** The fraction unbound at 1 µM was 0.939.

**Q.** And the CL (Liver)?
**A.** Its CL is 2.46 L/h/kg.

**Q.** And the CL (Liver microsomes)?
**A.** The CL was 2.04 L/h/kg.

**Q.** Which Stability [1] does the source give for `COc1cc2nc(N3CCCN(C(=O)N4CC(O)C(O)C4)CC3)nc(Nc3ccccn3)c2cc1OC` (centres undefined) here?
**A.** The Stability was 100%.

**Q.** And the half-life [2]?
**A.** The half-life was > 2 h.

**Q.** And the hepatic extraction ratio [3]?
**A.** Its hepatic extraction ratio is 0.7.

**Q.** For `COc1cc2nc(N3CCc4c(cccc4NS(C)(=O)=O)C3)nc(N)c2c(-c2ccccn2)c1OC` [TAPRIZOSIN], which Vd [20] is on record?
**A.** The Vd was 4.4 L/kg.

**Q.** And the Vd (Rattus norvegicus)?
**A.** The Vd was 24 L/kg.

**Q.** And the half-life at 1 µM [6]?
**A.** Its half-life at 1 µM is 0.683 h.

**Q.** And the Tmax [21]?
**A.** The Tmax was 1.3 h.

**Q.** And the logD [8]?
**A.** The logD was 3.

**Q.** And the half-life [22]?
**A.** Its half-life is 9.2 h.

**Q.** And the clearance [23]?
**A.** Its clearance is 0.336 L/h/kg.

**Q.** What about the fraction unbound at 1 ug/ml [10] of the same compound?
**A.** Its fraction unbound at 1 ug/ml is 0.21.

**Q.** What about the fraction unbound at 1 ug/ml [24] of the same compound?
**A.** Its fraction unbound at 1 ug/ml is 0.07.

**Q.** What about the half-life [25] of the same compound?
**A.** The half-life was 2.9 h.

**Q.** And the pKa [12]?
**A.** The pKa was 6.7.

**Q.** And the bioavailability [26]?
**A.** Its bioavailability is 73%.

**Q.** And the Cmax [27]?
**A.** Its Cmax is 0.105 µg/mL.

**Q.** And the Vd (Canis familiaris [28])?
**A.** Its Vd is 21 L/kg.

**Q.** What about the Cmax [29] of the same compound?
**A.** The Cmax was 0.0075 µg/mL.

**Q.** And the bioavailability [30]?
**A.** The bioavailability was 42%.

**Q.** And the Tmax [31]?
**A.** Its Tmax is 0.5 h.

**Q.** What about the half-life [32] of the same compound?
**A.** The half-life was 1 h.

**Q.** What about the fraction unbound at 1 µM [14] of the same compound?
**A.** Its fraction unbound at 1 µM is 0.564.

**Q.** And the Fa [33]?
**A.** Its Fa is 89%.

**Q.** And the half-life at 1 µM [15]?
**A.** The half-life at 1 µM was 0.5 h.

**Q.** And the fraction unbound at 1 µM [16]?
**A.** The fraction unbound at 1 µM was 0.602.

**Q.** And the clearance [34]?
**A.** The clearance was 1.32 L/h/kg.

**Q.** What about the CL (Liver) of the same compound?
**A.** Its CL is 4.98 L/h/kg.

**Q.** And the bioavailability [35]?
**A.** Its bioavailability is 79%.

**Q.** And the CL (Liver microsomes)?
**A.** The CL was 0.78 L/h/kg.

**Q.** And the fraction unbound at 1 ug/ml (Homo sapiens)?
**A.** Its fraction unbound at 1 ug/ml is 0.07.

**Q.** What about the half-life [36] of the same compound?
**A.** Its half-life is 11.4 h.

**Q.** And the Vd [37]?
**A.** Its Vd is 1.7 L/kg.

**Q.** Which pA2 [38] does the source give for `COc1cc2nc(N3CCN(C(=O)C4CCCO4)CC3)nc(N)c2cc1OC` (centres undefined) [TERAZOSIN] here?
**A.** Its pA2 is 10.

**Q.** And the pA2 [39]?
**A.** Its pA2 is 9.8.
